Source: ChEMBL document CHEMBL4130363, “Synthesis and pharmacological evaluation of benzamide derivatives as potent and selective sigma-1 protein ligands” (Eur J Med Chem, 2017)

What was measured:
[1] = target: Sigma intracellular receptor 2 (Homo sapiens, UniProt Q5BJF2); assay: Displacement of [3H]-DTG from S2R in human Jurkat cell membranes after 1 hr in presence of (+)-pentazocine by liquid scintillation counting
[2] = target: Sigma non-opioid intracellular receptor 1 (Homo sapiens, UniProt Q99720); assay: Displacement of [3H](+)-pentazocine from S1R in human Jurkat cell membranes after 2 hrs by liquid scintillation counting
S1R (sigma-1 receptor) = assay: Selectivity index, ratio of IC50 for human SH-SY5Y cells to Ki for S1R in human Jurkat cell membranes; assay type: toxicity, cell-based
SH-SY5Y = assay: Cytotoxicity against human SH-SY5Y cells assessed as reduction in cell viability after 72 hrs by MTT assay; assay type: cell-based

Chain of Sigma non-opioid intracellular receptor 1 (Q99720 whole entry): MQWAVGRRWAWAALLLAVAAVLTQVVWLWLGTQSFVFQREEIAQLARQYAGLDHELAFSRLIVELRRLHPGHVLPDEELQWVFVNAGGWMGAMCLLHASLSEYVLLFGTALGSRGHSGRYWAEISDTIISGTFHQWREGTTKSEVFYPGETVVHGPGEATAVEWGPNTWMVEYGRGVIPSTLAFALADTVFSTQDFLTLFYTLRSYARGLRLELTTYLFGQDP
Chain of Sigma intracellular receptor 2 (Q5BJF2 whole entry): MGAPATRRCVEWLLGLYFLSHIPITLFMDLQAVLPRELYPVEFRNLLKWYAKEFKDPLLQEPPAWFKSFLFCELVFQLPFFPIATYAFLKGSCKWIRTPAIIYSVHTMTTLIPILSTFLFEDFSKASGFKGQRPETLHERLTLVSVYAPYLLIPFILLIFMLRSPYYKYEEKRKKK

Row | Structure (SMILES) | Ki [1] | Ki [2] | selectivity ratio (S1R (sigma-1 receptor)) | IC50 (SH-SY5Y)
1 | CN(CCCNC(=O)c1ccc(F)cc1)Cc1ccccc1 | – | – | > 5000 | > 100000 nM
2 | O=C(NCCCN1CCOCC1)c1ccc(Cl)cc1 [EPROBEMIDE] | > 200 nM | > 100 nM | – | > 100000 nM
3 | CN(CCCNC(=O)c1cc(Cl)cc(Cl)c1)Cc1ccccc1 | – | – | 2610 | 60000 nM
4 | CN(CCCNC(=O)c1cccc(Cl)c1)Cc1ccccc1 | – | – | > 10000 | > 100000 nM
5 | O=C(NCCN1CCOCC1)c1ccc(Cl)cc1 [MOCLOBEMIDE] | > 200 nM | > 100 nM | – | > 100000 nM

Continued, in another order:

Row | Ki [1] | Ki [2] | Structure (SMILES) | selectivity ratio (S1R (sigma-1 receptor)) | IC50 (SH-SY5Y)
6 | 110 nM | 6.5 nM | CN(CCNC(=O)c1cccc(Cl)c1Cl)Cc1ccccc1 | > 15400 | > 100000 nM
7 | > 200 nM | > 100 nM | CN1CCN(CCNC(=O)c2ccc(Cl)cc2)CC1 | – | > 100000 nM
8 | > 200 nM | > 100 nM | O=C(NCCN1CCCC1)c1ccc(Cl)cc1 | – | > 100000 nM
9 | 350 nM | 19 nM | O=C(NCCCN1Cc2ccccc2C1)c1ccc(Cl)cc1 | > 5260 | > 100000 nM
10 | 200 nM | – | CN(CCCNC(=O)c1ccc(Br)cc1F)Cc1ccccc1 | > 34500 | > 100000 nM
